Reference: patent publication US20010033841A1, “Modulating platelet function” (priority 1998, published 2001)

What was measured:
[1] = tested on: human platelets; experiment: Chemokine-induced platelet aggregation in platelet rich plasma (aggregometer); type: cell-based
Description: (§1) Blood collection and platelet preparation. Human blood was collected from antecubital veins of healthy male or female, aspirin-free volunteers into syringes containing heparin (10 units/ml final concentration) for flow cytometry studies or sodium citrate (0.38% final concentration) for aggregation studies. Platelet rich plasma (PRP) was prepared by centrifugation of whole blood at 150 g for 15 minutes. Platelet poor plasma (PPP) was prepared by centrifugation of PRP at 1200 g for 15 minutes.
(§2) Aggregation studies. Experiments were performed using a Chrono-Log model 560 vs or 490-2D aggregometer (Havertown, Pa.). Aliquots of PRP (0.50 ml or 0.45 ml) with a platelet concentration of […] were incubated at 37° C. and stirred at 1000 rpm. Chemokines (PeproTech Inc., Rocky Hill, N.J., except SDF-1β, which was obtained from Genetics Institute, Boston, Mass.) were added and aggregation was measured as a percent change in optical density, with the instrument calibrated to yield 0% change in optical density for PRP and with the PPP 100% standard for change in optical density. Aggregation scale was set so that maximal aggregation gave 85-90% chart deflection. Inhibition experiments were done using CXCR4 mAb 12G5 (R&D, Minneapolis, Minn.), polyclonal anti-SDF-1 (R&D, Minneapolis, Minn.), pertussis toxin (Sigma, St. Louis, Mo.), wortmannin (Sigma), genestein (Sigma), and aspirin (Sigma). DMSO was used as vehicle for genestein and wortmannin and 1N NaOH was used as a vehicle for aspirin.

[2] = tested on: SDF-1 induced platelet aggregation; experiment: Inhibition of SDF-1 induced platelet aggregation; type: cell-based, human
Description: as §1, §2

[3] = tested on: resting T-cells, monocytes, B cell precursors, natural killer cells and CD34+ stem cells; conditions: Bleul et al. 1996; Campbell et al. 1998; cited from earlier work
[4] = tested on: human platelets; experiment: SDF-1 induced calcium flux in fura-2 loaded platelets; type: cell-based; conditions: SDF-1 50-100 nM, fura-2 340/380 ratio
Description: Calcium flux. Fura-2 loaded platelets were prepared from acid citrate dextrose anti-coagulated blood (Rink et al., J. Physiol. 393: 513-24, 1987). PRP was collected by centrifugation for 15 minutes at 200 g and 100 μM aspirin was added. Platelets were then loaded with fura-2 by incubating PRP with 2 μM acetoxymethyl ester of fura-2 (fura-2 AM; Molecular Probes, Inc., Eugene, Oreg.) for 45 minutes at 37° C. in the dark. PRP was then centrifuged at 1500 g for 10 minutes and the pellet washed and resuspended in a buffer containing 145 mM NaCl, 4 mM KCl, 1 mM NaH2PO4, 0.8 mM MgCl2, 1.8 mM CaCl2, 25 mM Hepes and 22 mM glucose. Changes in cytosolic free calcium were determined after addition of SDF-1 (500 or 1000 ng/ml) by monitoring the excitation fluorescence intensity emitted at 510 nm in response to sequential excitation at 340 nm and 380 nm using a Delta RAM (Random Access Monochromator) fluorimeter (Photon Technology International, Monmouth Junction, N.J.). The data are presented as the relative ratio of fluorescence at 340/380 nm.

In the case of SDF-1α, the “concentration at which a primary and secondary response was observed” value ([1]; FIGS. 1B and 1C) was 12.5 to 25 nM and the “concentration that only induced the primary phase of aggregation” value ([1]; FIGS. 1B and 1C) was 6.2 nM.
With pertussis toxin the “effect on SDF-1 induced platelet aggregation” value (from here on “effect”) ([2]; pertussis toxin 1.7 nM, 30 minute preincubation, SDF-1α 80 ng/ml, FIG. 4B) was “blocked”.
With `O=c1c(-c2ccc(O)cc2)coc2cc(O)cc(O)c12` [Genestein, genestein] the “effect” value ([2]; genestein 200 μM, 5 minutes preincubation, FIG. 5B) was “decreased SDF-1 platelet aggregation”.
In the case of “SDF-1: chemokine stromal derived factor-1; α or β form not specified at the place”, the “induction of platelet aggregation” value ([1]; 40 nM chemokine, FIG. 1A) was “induced platelet aggregation”, the “donors responding with only primary aggregation” value ([1]; out of twelve donors tested) was “two” and the “donors with full primary and secondary aggregation response” value ([1]; out of twelve donors tested) was “ten”. The “concentration giving maximal chemotaxis” value [3] was 10 to 100 nM and the “increase in cytosolic calcium” value [4] was “induced an increase in cytosolic calcium”.
In the case of `CC(=O)Oc1ccccc1C(=O)O` [Aspirin, aspirin], the “effect” value ([2]; aspirin 1 mM, FIG. 5A) was “inhibited SDF-1 induced secondary aggregation”.
